pIC50: −log10 of the molar value.
Key:
Format in all cases: biochemical
FGFR1 = target: T1, FGFR1 (Homo sapiens, UniProt P11362, C488A/C584S); experiment: AlphaScreen kinase assay, FGFR1; conditions: read-out: IC50, activity toward kinase FGFR
T1 construct: P1351.pET N6 BI-PTP FGFR A458-E765-X C488A, C584S; made in house; host or cells: E. coli (PTP1B co-expressed)

Kdr = target: T2, Kdr (Homo sapiens, UniProt P35968); experiment: Z'-Lyte FRET kinase assay (Invitrogen), Kdr; conditions: read-out: IC50, activity toward kinase Kdr
T2 construct: purchased Invitrogen (assay run by Invitrogen)

Fms = target: T3, Fms (Homo sapiens, UniProt P07333); experiment: AlphaScreen kinase assay, Fms; conditions: read-out: IC50, activity toward kinase Fms
T3 construct: purchased Upstate Biotechnology

B-Raf = target: T4, B-Raf (Homo sapiens, UniProt P15056); experiment: AlphaScreen kinase assay, B-Raf; conditions: read-out: IC50, activity toward kinase B-Raf
T4 construct: purchased Upstate Biotechnology

Ret = target: T5, Ret (Homo sapiens, UniProt P07949); experiment: AlphaScreen kinase assay, Ret; conditions: read-out: IC50, activity toward kinase Ret
T5 construct: P1378.pET-SF BI-PTP RET H661-R1012 HIS; made in house
T5 sequence (P07949 with tags, fused parts or gaps): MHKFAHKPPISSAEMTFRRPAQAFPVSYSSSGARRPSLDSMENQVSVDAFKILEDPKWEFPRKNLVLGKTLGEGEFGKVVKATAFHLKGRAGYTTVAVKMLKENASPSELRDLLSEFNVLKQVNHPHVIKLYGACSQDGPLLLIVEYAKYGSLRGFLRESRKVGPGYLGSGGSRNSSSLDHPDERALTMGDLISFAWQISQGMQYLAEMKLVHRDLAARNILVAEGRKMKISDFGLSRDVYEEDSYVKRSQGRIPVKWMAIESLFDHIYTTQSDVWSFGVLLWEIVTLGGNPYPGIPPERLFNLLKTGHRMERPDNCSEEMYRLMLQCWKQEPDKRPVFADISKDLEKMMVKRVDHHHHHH

Kit = target: T6, Kit (Homo sapiens, UniProt P10721); experiment: AlphaScreen kinase assay, Kit; conditions: read-out: IC50, activity toward kinase Kit
T6 construct: P1332.N6 BI PTP KIT M552-K948-X COD; His6 (N); made in house; host or cells: E. coli (PTP1B co-expressed)

B-Raf V600E = target: T7, B-Raf V600E (Homo sapiens, UniProt P15056, V600E); experiment: AlphaScreen kinase assay, B-Raf V600E; conditions: read-out: IC50, activity toward kinase B-Raf V600E
T7 construct: P4254. pFastBacBD-CDC37 BRAF D437-K722-X, V600E; His6 with pFastBac HT leader (TEV site) (N); made in house; host or cells: Sf9 (baculovirus; chaperone CDC37 co-expressed)

Yes = target: T8, Yes (Homo sapiens, UniProt P07947); experiment: Z'-Lyte FRET kinase assay (Invitrogen), Yes; conditions: read-out: IC50, activity toward kinase Yes
T8 construct: purchased Invitrogen (Carlsbad, Calif.), screening service
In short: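 Inhibition was inferred from protease cleavage of non-phosphorylated peptide, measured as a coumarin/fluorescein ratio. Kinase reactions used 10 μM ATP for 1 h at room temperature.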

Measured: pIC50

T1 sequence (P11362 458-765 C488A/C584S): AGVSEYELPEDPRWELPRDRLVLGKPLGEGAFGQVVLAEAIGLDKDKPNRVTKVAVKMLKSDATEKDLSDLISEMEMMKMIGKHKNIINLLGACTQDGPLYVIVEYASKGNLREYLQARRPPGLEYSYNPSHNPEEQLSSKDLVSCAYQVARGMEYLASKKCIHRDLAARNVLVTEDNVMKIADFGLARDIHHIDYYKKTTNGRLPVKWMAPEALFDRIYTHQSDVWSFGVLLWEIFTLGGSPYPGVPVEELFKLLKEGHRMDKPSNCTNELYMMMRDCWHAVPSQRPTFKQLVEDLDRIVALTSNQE
T7 sequence (P15056 with tags, fused parts or gaps V600E): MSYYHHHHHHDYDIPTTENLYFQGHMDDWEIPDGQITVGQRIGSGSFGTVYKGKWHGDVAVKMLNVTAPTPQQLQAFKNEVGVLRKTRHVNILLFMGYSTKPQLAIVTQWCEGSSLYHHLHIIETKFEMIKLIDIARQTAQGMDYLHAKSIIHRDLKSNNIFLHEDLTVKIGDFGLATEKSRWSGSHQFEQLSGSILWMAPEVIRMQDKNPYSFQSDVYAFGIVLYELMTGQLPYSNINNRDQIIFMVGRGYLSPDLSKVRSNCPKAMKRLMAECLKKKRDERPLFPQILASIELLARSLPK
T4 sequence (P15056 whole entry): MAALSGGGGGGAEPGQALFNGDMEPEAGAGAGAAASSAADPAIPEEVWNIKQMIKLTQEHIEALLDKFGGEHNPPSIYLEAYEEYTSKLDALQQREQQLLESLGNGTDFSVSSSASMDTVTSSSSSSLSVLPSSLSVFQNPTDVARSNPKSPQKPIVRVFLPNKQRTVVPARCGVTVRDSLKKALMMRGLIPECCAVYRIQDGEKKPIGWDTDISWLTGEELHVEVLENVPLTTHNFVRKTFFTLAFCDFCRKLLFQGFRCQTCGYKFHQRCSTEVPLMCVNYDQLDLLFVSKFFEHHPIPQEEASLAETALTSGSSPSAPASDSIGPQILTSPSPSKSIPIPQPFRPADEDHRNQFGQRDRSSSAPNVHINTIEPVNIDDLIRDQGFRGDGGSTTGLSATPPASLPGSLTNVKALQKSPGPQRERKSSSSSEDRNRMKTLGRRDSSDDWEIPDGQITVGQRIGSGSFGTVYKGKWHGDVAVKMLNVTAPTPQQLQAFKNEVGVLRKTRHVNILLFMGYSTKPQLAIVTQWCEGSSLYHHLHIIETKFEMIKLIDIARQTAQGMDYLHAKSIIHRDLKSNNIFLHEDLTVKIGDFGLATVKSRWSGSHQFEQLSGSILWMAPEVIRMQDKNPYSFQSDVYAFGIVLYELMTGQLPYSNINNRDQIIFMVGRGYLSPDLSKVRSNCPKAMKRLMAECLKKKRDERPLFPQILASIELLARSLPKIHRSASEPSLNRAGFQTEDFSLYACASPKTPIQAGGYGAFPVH
T3 sequence (P07333 20-972): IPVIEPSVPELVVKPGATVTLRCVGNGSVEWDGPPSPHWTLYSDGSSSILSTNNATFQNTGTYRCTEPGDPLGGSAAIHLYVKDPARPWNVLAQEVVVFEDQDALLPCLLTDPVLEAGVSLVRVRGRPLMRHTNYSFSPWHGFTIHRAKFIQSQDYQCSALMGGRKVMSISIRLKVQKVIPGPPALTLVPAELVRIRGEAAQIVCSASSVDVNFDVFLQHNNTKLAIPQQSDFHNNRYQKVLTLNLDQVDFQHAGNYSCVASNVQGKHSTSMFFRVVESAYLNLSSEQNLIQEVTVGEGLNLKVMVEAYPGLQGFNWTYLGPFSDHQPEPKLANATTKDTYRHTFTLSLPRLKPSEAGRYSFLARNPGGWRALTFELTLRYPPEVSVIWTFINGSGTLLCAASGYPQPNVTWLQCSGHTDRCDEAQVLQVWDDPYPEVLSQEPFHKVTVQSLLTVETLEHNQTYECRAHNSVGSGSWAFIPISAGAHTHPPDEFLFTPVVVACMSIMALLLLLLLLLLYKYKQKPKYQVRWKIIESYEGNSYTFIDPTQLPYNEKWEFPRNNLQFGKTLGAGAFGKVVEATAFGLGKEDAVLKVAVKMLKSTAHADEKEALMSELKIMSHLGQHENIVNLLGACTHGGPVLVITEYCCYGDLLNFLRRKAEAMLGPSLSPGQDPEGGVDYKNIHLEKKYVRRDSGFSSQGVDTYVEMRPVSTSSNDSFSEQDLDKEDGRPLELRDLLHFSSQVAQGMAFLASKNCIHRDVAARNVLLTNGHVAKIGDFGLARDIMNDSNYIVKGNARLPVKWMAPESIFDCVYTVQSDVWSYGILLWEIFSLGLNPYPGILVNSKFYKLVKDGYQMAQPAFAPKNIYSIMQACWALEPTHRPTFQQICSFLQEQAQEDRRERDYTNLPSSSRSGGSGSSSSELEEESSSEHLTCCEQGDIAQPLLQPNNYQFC
T2 sequence (P35968 20-1356): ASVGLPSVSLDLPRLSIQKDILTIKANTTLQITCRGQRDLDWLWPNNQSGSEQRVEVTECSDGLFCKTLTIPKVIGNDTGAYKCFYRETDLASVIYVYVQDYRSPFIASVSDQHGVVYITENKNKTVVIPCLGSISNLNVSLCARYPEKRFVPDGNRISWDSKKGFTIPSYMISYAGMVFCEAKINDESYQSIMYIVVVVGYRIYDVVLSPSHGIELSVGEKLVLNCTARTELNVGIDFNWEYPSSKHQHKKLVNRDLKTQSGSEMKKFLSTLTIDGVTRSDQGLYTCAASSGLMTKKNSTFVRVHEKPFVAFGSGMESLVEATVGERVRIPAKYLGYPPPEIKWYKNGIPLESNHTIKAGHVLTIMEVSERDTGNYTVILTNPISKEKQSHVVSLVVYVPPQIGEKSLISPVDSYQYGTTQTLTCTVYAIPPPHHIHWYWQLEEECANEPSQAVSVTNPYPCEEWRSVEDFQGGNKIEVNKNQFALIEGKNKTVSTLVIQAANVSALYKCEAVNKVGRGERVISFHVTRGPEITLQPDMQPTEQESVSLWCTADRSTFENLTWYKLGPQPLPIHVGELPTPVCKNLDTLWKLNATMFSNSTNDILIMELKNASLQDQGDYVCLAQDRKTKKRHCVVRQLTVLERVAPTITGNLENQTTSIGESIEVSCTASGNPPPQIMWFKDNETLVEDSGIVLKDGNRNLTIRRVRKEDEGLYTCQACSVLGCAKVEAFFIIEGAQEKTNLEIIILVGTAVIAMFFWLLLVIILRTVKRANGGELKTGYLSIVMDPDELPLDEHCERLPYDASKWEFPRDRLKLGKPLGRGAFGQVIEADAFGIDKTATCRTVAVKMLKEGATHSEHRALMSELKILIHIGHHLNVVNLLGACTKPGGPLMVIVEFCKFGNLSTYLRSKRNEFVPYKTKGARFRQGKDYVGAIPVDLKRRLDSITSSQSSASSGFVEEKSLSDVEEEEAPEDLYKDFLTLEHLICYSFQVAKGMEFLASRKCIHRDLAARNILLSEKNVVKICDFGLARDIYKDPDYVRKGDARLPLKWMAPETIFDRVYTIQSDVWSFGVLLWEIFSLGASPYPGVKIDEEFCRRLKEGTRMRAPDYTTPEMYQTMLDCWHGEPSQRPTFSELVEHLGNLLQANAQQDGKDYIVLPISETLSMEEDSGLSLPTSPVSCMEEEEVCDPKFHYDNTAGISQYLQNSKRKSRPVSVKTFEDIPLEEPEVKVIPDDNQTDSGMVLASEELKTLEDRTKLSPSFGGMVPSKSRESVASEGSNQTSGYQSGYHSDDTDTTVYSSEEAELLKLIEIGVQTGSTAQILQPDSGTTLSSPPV
T8 sequence (P07947 whole entry): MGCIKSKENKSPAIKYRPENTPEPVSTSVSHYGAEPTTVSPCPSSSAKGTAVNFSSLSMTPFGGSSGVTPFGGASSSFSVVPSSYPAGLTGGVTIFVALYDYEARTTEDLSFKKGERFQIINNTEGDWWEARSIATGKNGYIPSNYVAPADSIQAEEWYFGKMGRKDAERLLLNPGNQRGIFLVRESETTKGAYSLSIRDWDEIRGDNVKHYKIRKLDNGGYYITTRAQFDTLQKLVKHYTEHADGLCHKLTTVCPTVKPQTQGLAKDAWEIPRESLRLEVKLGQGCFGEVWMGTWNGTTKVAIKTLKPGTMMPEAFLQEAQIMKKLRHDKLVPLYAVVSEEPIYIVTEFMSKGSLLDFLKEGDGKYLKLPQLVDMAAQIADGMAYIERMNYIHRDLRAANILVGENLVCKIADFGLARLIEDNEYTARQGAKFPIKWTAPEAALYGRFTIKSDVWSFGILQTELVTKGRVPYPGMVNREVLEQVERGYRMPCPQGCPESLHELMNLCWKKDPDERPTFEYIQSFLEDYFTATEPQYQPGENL
T6 sequence (P10721 with tags, fused parts or gaps): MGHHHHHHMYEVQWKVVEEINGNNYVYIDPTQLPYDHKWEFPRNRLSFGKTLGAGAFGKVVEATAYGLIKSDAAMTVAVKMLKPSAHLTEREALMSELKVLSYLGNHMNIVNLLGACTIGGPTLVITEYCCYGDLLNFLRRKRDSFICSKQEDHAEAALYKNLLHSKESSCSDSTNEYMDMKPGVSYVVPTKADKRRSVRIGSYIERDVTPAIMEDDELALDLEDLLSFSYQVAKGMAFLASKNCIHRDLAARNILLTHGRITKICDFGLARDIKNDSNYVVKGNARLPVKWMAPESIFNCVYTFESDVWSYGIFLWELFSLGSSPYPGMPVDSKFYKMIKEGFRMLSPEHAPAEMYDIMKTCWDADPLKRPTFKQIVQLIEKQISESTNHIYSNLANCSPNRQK

Cc1c(O)cccc1C(=O)c1c[nH]c2ncc(-c3cccnc3)cc12 [Compound P-0006, (3-Hydroxy-2-methyl-phenyl)-(5-pyridin-3-yl-1H-pyrrolo[2,3b]pyridin-3-yl)-methanone]
not listed: Yes
≥ 5.00: all other assays above

CCCS(=O)(=O)Nc1ccc(F)c(C(=O)c2c[nH]c3ncccc23)c1F [Compound P-0007, Propane-1-sulfonic acid [2,4-difluoro-3-(1H-pyrrolo[2,3-b]pyridine-3-carbonyl)-phenyl]-amide]
not listed: Ret
≥ 5.00: all other assays above

Oc1ccc(F)c(C(O)c2c[nH]c3ncc(-c4cccnc4)cc23)c1F (stereo not shown) [Compound P-0009, 2,4-difluoro-3-[hydroxy-(5-pyridin-3-yl-1H-pyrrolo[2,3-b]pyridin-3-yl)-methyl]-phenol]
not listed: Yes
≥ 5.00: all other assays above

O=C(O)/C=C/c1cccc(-c2cnc3[nH]cc(C(=O)c4cc(O)ccc4F)c3c2)c1 [Compound P-0010]
not listed: Kdr | Kit
≥ 5.00: all other assays above

O=C(c1ccc(O)cc1Cl)c1c[nH]c2ncccc12 [Compound P-0021]
not listed: Ret
≥ 5.00: all other assays above

O=C(c1cc(O)ccc1F)c1c[nH]c2ncc(-c3cccs3)cc12 [Compound P-0032]
not listed: Yes
≥ 5.00: all other assays above

O=C(c1cccc(O)c1F)c1c[nH]c2ncc(-c3ccccc3)cc12 [Compound P-0036, (2-fluoro-3-hydroxy-phenyl)-(5-phenyl-1H-pyrrolo[2,3-b]pyridin-3-yl)-methanone]
not listed: Kdr
≥ 5.00: all other assays above

O=C(c1cccc(O)c1F)c1c[nH]c2ncc(Br)cc12 [Compound P-0067, (5-bromo-1H-pyrrolo[2,3-b]pyridin-3-yl)-(2-fluoro-3-hydroxy-phenyl)-methanone]
not listed: Ret
≥ 5.00: all other assays above

O=C(c1cc(O)ccc1F)c1c[nH]c2ncc(Br)cc12 [Compound P-0068, (5-Bromo-1H-pyrrolo[2,3-b]pyridin-3-yl)-(2-fluoro-5-hydroxy-phenyl)-methanone]
not listed: Ret | Kit
≥ 5.00: all other assays above

Cc1ccc(S(=O)(=O)NCc2c[nH]c3nccc(-c4cccc(C#N)c4)c23)cc1 [Compound P-0072]
not listed: Kdr | B-Raf
≥ 5.00: all other assays above

Oc1ccc(F)c(Cc2c[nH]c3ncc(-c4cccnc4)cc23)c1F [Compound P-0078, 2,4-difluoro-3-(5-pyridin-3-yl-1H-pyrrolo[2,3-b]pyridin-3-ylmethyl)-phenol]
not listed: Yes
≥ 5.00: all other assays above

Oc1cc(O)cc(Cc2c[nH]c3ncc(-c4ccsc4)cc23)c1 [Compound P-0093]
not listed: Ret
≥ 5.00: all other assays above

Cc1ccccc1C(=O)c1c[nH]c2nccc(-c3cccc(NS(C)(=O)=O)c3)c12 [Compound P-0109]
≥ 5.00: Yes | Ret | B-Raf V600E

Cc1c(O)cccc1C(=O)c1c[nH]c2ncc(-c3cccs3)cc12 [Compound P-0114, (3-Hydroxy-2-methyl-phenyl)-(5-thiophen-2-yl-1H-pyrrolo[2,3b]pyridin-3-yl)-methanone]
not listed: Yes
≥ 5.00: all other assays above

Cc1ccc(F)cc1C(=O)c1c[nH]c2nccc(-c3cccc(NS(C)(=O)=O)c3)c12 [Compound P-0124]
≥ 5.00: Yes | Ret | B-Raf V600E

CN(C)S(=O)(=O)Nc1ccc(F)c(Cc2c[nH]c3ncc(-c4cccnc4)cc23)c1F [Compound P-0166]
not listed: Kdr | Ret
≥ 5.00: all other assays above

CS(=O)(=O)c1cccc(-c2ccnc3[nH]cc(C(=O)c4cc(F)ccc4F)c23)c1 [Compound P-0171]
not listed: Kdr | Fms
≥ 5.00: all other assays above

O=C(c1cccc(O)c1)c1c[nH]c2ncc(-c3cccs3)cc12 [Compound P-0196]
not listed: Yes
≥ 5.00: all other assays above

O=C(Nc1ccc(Cc2c[nH]c3ncccc23)cc1)Nc1cccc(C(F)(F)F)c1 [Compound P-0262, 1-[4-(1H-Pyrrolo[2,3-b]pyridin-3-ylmethyl)-phenyl]-3-(3-trifluoromethyl-phenyl)-urea]
not listed: Yes
≥ 5.00: all other assays above

CCCS(=O)(=O)Nc1ccc(F)c(C(=O)c2c[nH]c3ncc(-c4ccccc4)cc23)c1F [Compound P-0636, Propane-1-sulfonic acid [2,4-difluoro-3-(5-phenyl-1H-pyrrolo[2,3-b]pyridine-3-carbonyl)-phenyl]-amide]
not listed: Kdr
≥ 5.00: all other assays above

From patent publication US8415469B2, “Compounds and methods for kinase modulation, and indications therefor” (Plexxikon Inc., priority 2005, dated 2013)
